From patent publication US8383581B2, “Short-chain peptides as parathyroid hormone (PTH) receptor agonist” (Cadila Healthcare Limited, priority 2009, dated 2013)
Where a SMILES comes first, the peptide text is derived from it. [ ]: non-standard residue; d: D form. ξ: configuration not given here. ξαMePhe(2,6-F2) = CC(N)(Cc1c(F)cccc1F)C(=O)O; ξαMe(hhPhe) = CC(N)(CCCc1ccccc1)C(=O)O; ξαMePhe(2-F) = CC(N)(Cc1ccccc1F)C(=O)O; ξαMeW = CC(N)(Cc1c[nH]c2ccccc12)C(=O)O; hhPhe = N[C@@H](CCCc1ccccc1)C(=O)O; hArg = N=C(N)NCCCC[C@H](N)C(=O)O; Cit = NC(=O)NCCC[C@H](N)C(=O)O; ξαMeNle = CCCCC(C)(N)C(=O)O; Nle = CCCC[C@H](N)C(=O)O; Orn = NCCC[C@H](N)C(=O)O; Ac5c = NC1(C(=O)O)CCCC1; Ac3c = NC1(C(=O)O)CC1; Aib = CC(C)(N)C(=O)O

Tests used:
[1] = tested on: ovariectomised (OVX) rats; assay: In vivo anti-osteoporosis activity testing in OVX rat model (serum calcium, phosphate, bone parameters); design: species or system Female Wistar Rats; settings: po
Excerpt: c) In Vivo Anti-Osteoporosis Activity Testing in OVX Rat Model: The ovariectomised (OVX) rats were used to study anti-osteoporosis activity of test compounds (short-chain peptides) in vivo. The OVX rats develop osteopenia due to ovarian hormone deficiency. Osteopenia can be detected as early as 14 days post OVX, increase for the next 100 days and then stabilised (Wronski T. J., et al., Calcif. Tissue Int., 43(3), 1988, 179-183). Detailed Study Protocol to Evaluate the Effects of Anabolic Therapy on Bone Markers and Histomorphometry in OVX Animals: 10 to 11 weeks old Female Wistar Rats (150-200 g) were used. The animals were kept in individually ventilated cages in a room with controlled temperature (23°±3° C.), lighting (12:12 h light-dark cycle) and relative humidity (55±10%). Animals had free access to standard rat chow and water. Protocol for use of animals for conducting this study has been reviewed and approved by Institutional Animal Ethics Committee (IAEC). The animals were marked with picric acid for identification and acclimatized to experimental room conditions for 2 days prior to initiation of the study. For the induction of osteoporosis, rats were bilaterally ovariectomised under anesthesia. For Ovariectomy, Incision was made on dorsa-lateral side near lumbar region of animal. After that, ovary was excised and the veins were tied with ligature before removing ovary to prevent blood loss. Then incision was sutured back with ligature. After Bilateral ovariectomy, animals were allowed to rest for 4 weeks. They were then divided into different groups (n=9) based on their body weight. The groups consisted of a no treatment control, PTH as standard and one or two groups of test compounds (short-chain peptides). The treatment was given for the duration of 6 weeks. At the last day of treatment animals were kept overnight in metabolic cages under fasting for the collection of Urine. Next day, blood was collected after 24 hours of last dosing and animals were sacrificed. Changes in biochemical parameters and bone turnover parameters (Increase in serum Calcium and decrease in Phosphate levels, Acid Phosphatase and TRAP) were evaluated in the urine and serum. After sacrificing, intact femur and tibial bones are removed and cleaned from adherent tissues, muscles and tendons; weighed and collected in formal saline (10% formaldehyde solution). Lumbar vertebra (L5) was excised, carefully cleaned and collected in formal saline. Femur, tibia and Lumbar vertebra-5 (L5) were later processed for histomorphometric evaluation (Zhang L., et al., Tohoku J Exp Med., 1998, 186(2), 131-41; Tanizawa T., et al., Toxicol Lett., 1998, 102, 399-403).

[2] = Stability of peptides in human plasma; assay type: in vitro ADME; settings: human, plasma; for metabolised at 24 h, 2 μM: pH 7.8
Outline: (§1)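 Peptides at 2 μM final incubated 0–24 h at 37 °C (50 mM triethanolamine-HCl, pH 7.8) in each matrix, matrix level set to degrade ~50% PTH(1-34) in 1 h; TFA-quenched, C18 HPLC at 206 nm with ESI-MS peak identification; percent degradation from peak areas at each time point.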

[3] = Stability of peptides in simulated intestinal fluid (pH 7.5); assay type: in vitro ADME; settings: pH 7.5; for half-life: simulated gi fluid; for % degradation of peptides in 24 h when incubated with simulated intestinal fluid: 2 μM
Outline: as §1

[4] = Stability of peptides in simulated gastric fluid (pH 1.5; HCl, NaCl and Pepsin); assay type: in vitro ADME; settings: pH 1.5; for % degradation of peptides in 24 h when incubated with simulated gastric fluid: 2 μM; for half-life: simulated gi fluid
[5] = Stability of peptides in human liver microsomes; assay type: in vitro ADME; settings: human, microsomes; for % degradation of peptides in 24 h when incubated with liver microsomes: 2 μM, pH 7.8
Outline: as §1

Structure (SMILES): CCCC[C@H](NC(=O)C(C)(Cc1c(F)cccc1F)NC(=O)[C@H](CCC(N)=O)NC(=O)[C@@H](NC(=O)[C@H](CCC(=O)O)NC(=O)C1(NC(=O)[C@@H](NC(=O)C2(N)CCCC2)C(C)C)CCCC1)[C@@H](C)CC)C(=O)N[C@@H](Cc1c[nH]cn1)C(=O)N[C@@H](CCC(N)=O)C(=O)N[C@@H](CCCCNC(=N)N)C(=O)NC(C)(C)C(=O)N[C@@H](CCCCN)C(=O)NC(C)(Cc1c(F)cccc1F)C(N)=O (stereo partly drawn) [Seq. ID. 117] (H-[Ac5c]V[Ac5c]EIQ[ξαMePhe(2,6-F2)][Nle]HQ[hArg][Aib]K[ξαMePhe(2,6-F2)]-NH2)
- % decrease in serum PO4 Levels (mg/dl) vs control ([1]; 3 mg/kg): 99%
- % increase in serum Ca^2+ Levels (mg/dl) vs control ([1]; 3 mg/kg): 110%

Structure (SMILES): CCCC[C@H](NC(=O)C(C)(Cc1c(F)cccc1F)NC(=O)[C@H](CCC(N)=O)NC(=O)[C@@H](NC(=O)[C@H](CCC(=O)O)NC(=O)C1(NC(=O)[C@@H](NC(=O)C2(N)CCCC2)C(C)C)CCCC1)[C@@H](C)CC)C(=O)N[C@@H](Cc1c[nH]cn1)C(=O)N[C@@H](CCC(N)=O)C(=O)N[C@@H](CCCCNC(=N)N)C(=O)NC(C)(C)C(=O)N[C@@H](CCCNC(N)=O)C(=O)NC(C)(Cc1c(F)cccc1F)C(N)=O (stereo partly drawn) [Seq. ID. 158] (H-[Ac5c]V[Ac5c]EIQ[ξαMePhe(2,6-F2)][Nle]HQ[hArg][Aib][Cit][ξαMePhe(2,6-F2)]-NH2)
- % decrease in serum PO4 Levels (mg/dl) vs control ([1]; 0.1 mg/kg): 82%
- % increase in serum Ca^2+ Levels (mg/dl) vs control ([1]; 0.1 mg/kg): 100%

Structure (SMILES): CCCC[C@H](NC(=O)C(C)(Cc1ccccc1F)NC(=O)[C@H](CCC(N)=O)NC(=O)[C@@H](NC(=O)[C@H](CCC(=O)O)NC(=O)C(C)(C)NC(=O)[C@@H](NC(=O)C1(N)CCCC1)C(C)C)[C@@H](C)CC)C(=O)N[C@@H](Cc1c[nH]cn1)C(=O)N[C@@H](CCC(N)=O)C(=O)N[C@@H](CCCCNC(=N)N)C(=O)NC(C)(C)C(=O)NC(C)(Cc1c(F)cccc1F)C(=O)NC(C)(Cc1ccccc1F)C(N)=O (stereo partly drawn) [Seq. ID. 210] (H-[Ac5c]V[Aib]EIQ[ξαMePhe(2-F)][Nle]HQ[hArg][Aib][ξαMePhe(2,6-F2)][ξαMePhe(2-F)]-NH2)
- % decrease in serum PO4 Levels (mg/dl) vs control ([1]; 1 mg/kg): 99%
- % increase in serum Ca^2+ Levels (mg/dl) vs control ([1]; 1 mg/kg): 96%

Structure (SMILES): CCCC[C@H](NC(=O)C(C)(Cc1c(F)cccc1F)NC(=O)[C@H](CCC(N)=O)NC(=O)[C@@H](NC(=O)[C@H](CCC(=O)O)NC(=O)C(C)(C)NC(=O)[C@@H](NC(=O)C(C)(C)N)C(C)C)[C@@H](C)CC)C(=O)N[C@@H](Cc1c[nH]cn1)C(=O)N[C@@H](CCC(N)=O)C(=O)N[C@@H](CCCN)C(=O)N[C@@H](C)C(=O)N[C@@H](CCCNC(N)=O)C(=O)NC(C)(Cc1c(F)cccc1F)C(N)=O (stereo partly drawn) [Seq. ID. 293] (H-[Aib]V[Aib]EIQ[ξαMePhe(2,6-F2)][Nle]HQ[Orn]A[Cit][ξαMePhe(2,6-F2)]-NH2)
- % decrease in serum PO4 Levels (mg/dl) vs control ([1]; 5 mg/kg): 75%
- % increase in serum Ca^2+ Levels (mg/dl) vs control ([1]; 5 mg/kg): 67%

Structure (SMILES): CCCCC(C)(NC(=O)[C@H](CC(C)C)NC(=O)[C@H](CCC(N)=O)NC(=O)[C@@H](NC(=O)[C@H](CCC(=O)O)NC(=O)C(C)(C)NC(=O)[C@@H](NC(=O)C1(N)CC1)C(C)C)[C@@H](C)CC)C(=O)N[C@@H](Cc1c[nH]cn1)C(=O)N[C@@H](CCC(N)=O)C(=O)N[C@@H](CCCCNC(=N)N)C(=O)N[C@@H](C)C(=O)N[C@@H](CCCCNC(=N)N)C(=O)NC(C)(Cc1c[nH]c2ccccc12)C(=O)N[C@@H](CCCc1ccccc1)C(N)=O (stereo partly drawn) [Seq. ID. 945] (H-[Ac3c]V[Aib]EIQL[ξαMeNle]HQ[hArg]A[hArg][ξαMeW][hhPhe]-NH2)
- half-life (t1/2) in human plasma [2]: (9) h
- metabolised at 24 h, 2 μM [2]: 75%
- half-life [3]: 30 min
- % degradation of peptides in 24 h when incubated with simulated intestinal fluid [3]: 100%
- % degradation of peptides in 24 h when incubated with simulated gastric fluid [4]: 100%
- half-life [4]: 30 min
- half-life [5]: 30 min
- % degradation of peptides in 24 h when incubated with liver microsomes [5]: 100%

Structure (SMILES): CCCCC(C)(NC(=O)[C@H](CC(C)C)NC(=O)[C@H](CCC(N)=O)NC(=O)[C@@H](NC(=O)[C@H](CCC(=O)O)NC(=O)C(C)(C)NC(=O)[C@@H](NC(=O)C(C)(C)N)C(C)C)[C@@H](C)CC)C(=O)N[C@@H](Cc1c[nH]cn1)C(=O)N[C@@H](CCC(N)=O)C(=O)N[C@@H](CCCCNC(=N)N)C(=O)N[C@@H](C)C(=O)N[C@@H](CCCCNC(=N)N)C(=O)NC(C)(Cc1c[nH]c2ccccc12)C(=O)NC(C)(CCCc1ccccc1)C(N)=O (stereo partly drawn) [Seq. ID. 949] (H-[Aib]V[Aib]EIQL[ξαMeNle]HQ[hArg]A[hArg][ξαMeW][ξαMe(hhPhe)]-NH2)
- half-life (t1/2) in human plasma [2]: (9) h
- metabolised at 24 h, 2 μM [2]: 70%
- half-life [3]: 30 min
- % degradation of peptides in 24 h when incubated with simulated intestinal fluid [3]: 100%
- % degradation of peptides in 24 h when incubated with simulated gastric fluid [4]: 100%
- half-life [4]: 30 min
- half-life [5]: 30 min
- % degradation of peptides in 24 h when incubated with liver microsomes [5]: 100%
